What was measured:
[1] = target: T1, GPR4 (Homo sapiens, UniProt P46093); experiment: Radioligand binding to homogenates of GPR4-transfected CHO cells; conditions: cold competitors, GPR4-transfected CHO cell homogenates
T1 construct: were used to generate full length GPR4, which was digested with EcoRI and Xba I and cloned into the pBs3HA vector; expressed in transfected cells
Experimental: (§1) To characterize the binding of SPC and LPC to GPR4 and TDAG8, we conducted radioligand binding assays. CHO cells were chosen for GPR4 binding assays, since HEK293 cells express relatively high levels of endogenous GPR4. CHO cells stably transfected with empty vector or GPR4 were serum starved for 20 h, then collected after exposure to 2 mM EDTA in PBS. The pelleted cells were stored at −80° C. until use. Binding assays were performed essentially as described previously (Xu et al. (2000) Nat Cell Biol 2, 261-267), except binding was performed at 4° C. Briefly, frozen cells (10^6 cells/ml) were homogenized in a binding buffer. Assays were performed in 96-well plates in triplicate with 100 μl cell homogenate (equivalent to 10^5 cells/well). Different amounts of [^3H]SPC or [^3H]16:0-LPC were added to the cell homogenates in 50 μl of binding buffer, in the presence or absence of cold SPC or 16:0-LPC, or other competitors. The plates were incubated at 4° C. for 120 min, unless otherwise indicated. Cell-bound [^3H]SPC or [^3H]LPC was collected onto a filter (Printed Filtermat A, Wallac, Gaithersburg, Md.) using an automated cell harvester (HARVESTER 96, Tomtec, Orange, Conn.). Specific binding was calculated by subtraction of nonspecific binding (binding detected in the presence of 100-fold excess unlabeled SPC or 16:0-LPC) from the total binding.
Cell homogenates were used for binding assays. Binding was conducted at 4° C. for 120 min or as indicated. [^3H]SPC and [^3H]16:0-LPC specifically bound to cell homogenates from GPR4-transfected CHO cells in a time-dependent manner and reached equilibrium after 60 min incubation at 4° C. […] The maximum binding capacities for SPC and 16:0-LPC were 996 fmole/10^5 cells for SPC and 1,528 fmole/10^5 cells for 16:0-LPC. […] Binding assays using [^3H]18:0-LPC gave similar results. We also tested the four glycosphingolipids, Psy, Glu-Sph, Gal-Cer, and Lac-Cer, for their ability to compete for the binding of [^3H]SPC and [^3H]16:0-LPC to GPR4.

[2] = target: T2, TDAG8 (Homo sapiens, UniProt Q8IYL9); experiment: TDAG8 receptor internalization; type: cell-based
T2 construct: expressed in transfected cells
T2 sequence (Q8IYL9 whole entry): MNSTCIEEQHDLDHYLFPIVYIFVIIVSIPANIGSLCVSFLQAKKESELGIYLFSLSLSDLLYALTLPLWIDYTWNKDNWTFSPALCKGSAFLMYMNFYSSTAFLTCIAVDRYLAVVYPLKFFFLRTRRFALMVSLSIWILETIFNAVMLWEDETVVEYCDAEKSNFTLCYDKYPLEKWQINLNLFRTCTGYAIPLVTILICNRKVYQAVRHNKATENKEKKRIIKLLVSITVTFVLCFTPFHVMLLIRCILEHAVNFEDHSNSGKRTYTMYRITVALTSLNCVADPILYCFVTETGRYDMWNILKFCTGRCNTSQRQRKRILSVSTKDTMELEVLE
Excerpt: G protein coupled receptors undergo agonist-dependent desensitization and internalization.

[3] = target: T1, GPR4; experiment: SRE luciferase reporter in GPR4-transfected HEK293 cells; type: cell-based; conditions: GPR4 cotransfection
Experimental: The serum-response element (SRE) reporter system is a sensitive assay for receptors of lipid factors (An et al. (1998) J Biol Chem 273, 7906-7910; An et al. (1999) Mol Pharmacol 55, 787-794). The SRE reporter system used herein (pSRE-Luc) was a gift from Dr. Songzhu An (UCSF), or may be purchased from Stratagene (La Jolla, Calif.). Both systems give identical results. HEK293 and HEK293GPR4 cells were cultured in RPMI1640 with 10% FBS in 10 cm dishes to ˜85% confluence. To the cells in each dish, pSRE-Luc (10 μg) was transfected in the presence of 60 μl LipofectAMINE reagent. Cells were seeded in 96-well plates 16 h after transfection, incubated for another 24 h in RPMI1640 with 10% FBS, and starved in serum-free medium for 16 h. SPC (dissolved in PBS to 10 mM) and other lipids (LPCs were dissolved in 70% ethanol. Other lipids were dissolved in PBS, 70-95% ethanol, or 100% MeOH) were diluted in serum free RPMI 1640 and added to the cells, followed by a 10 h incubation. Luciferase activity was measured in Microlite™ 1 plates (DYNEX Technologies, Inc., Virginia) using 60 μl of cell lysate and 20 μl luciferase substrate. PTX (100 ng/ml) was added during the 16 h serum starvation period and pcDNA1-C3 (encoding the C3-exoenzyme, 2 μg) was co-transfected with pSRE-Luc (10 μg). All experiments were performed in quadruplicate and were repeated at least three times. The Student's t test was performed using the GraphPad Instat software (San Diego, Calif.). p<0.05 was considered to be statistically significant.

[4] = target: T2, TDAG8; experiment: Binding of phospholipids to TDAG8
Experimental: as §1
Using functional and binding assays, we have identified the ligands for TDAG8.

[5] = target: T1, GPR4; experiment: Single-cell intracellular calcium assay (fura-2) in GPR4-GFP-transfected MCF10A cells; type: cell-based; conditions: for increase in [Ca2+]i in GPR4- vs vector-transfected/parental MCF10A cells: lipid at 1 μM; for effect of PAF receptor antagonist on calcium response to LPC or SPC: BN52021 200 μM, WEB-2086 2 μM, WEB-2170 2 μM
Experimental: (§2) Measurement of [Ca^2+]i, was performed as described previously in Xu et al. (2000) Nat Cell Biol 2, 261-267. Briefly, pGPR4-GFP-transfected MCF10A cells were grown in specialized glass-bottom dishes (Bioptech, Inc., Butler, Pa.) and loaded with fura-2 in HEPES buffered saline. Using a dual-wavelength spectrofluorometer (RFK-6002, Photon Technology Int'l, So. Brunswick, N.J.) coupled to an inverted fluorescence microscope (Olympus, IX-70, Lake Success, N.Y.), GFP-positive cells were identified using an excitation wavelength of 488 nm, a dichroic 505 nm long-pass filter and an emitter filter at bandpass of 535 nm (Chroma Technology, Brattleboro, Vt.). Measurements of [Ca^2+]i were performed on individual GPR4-GFP positive cells at excitation wavelengths of 340 and 380 nm and an emission wavelength of 510 nm. Conversion of the 340/380 ratio value into [Ca^2+]i in nM was estimated by comparing the cellular fluorescence ratio with ratios acquired using fura-2 (free acid) in buffers containing known Ca^2+ concentrations. [Ca^2+]i was then calculated as described by Grynkiewicz et al. (1985) J Biol Chem 260, 3440-3450. All calcium assays were performed in the presence of 1 mM EGTA in the assay buffers. Therefore, intracellular calcium release, not calcium influx, was analyzed.
To test whether GPR4 is a receptor for SPC, MCF10A cells were transiently transfected with pGPR4-GFP.
The GFP receptor fusion was used to identify positively transfected cells, and single-cell calcium assays were performed as described in our previous studies, such as Xu et al. (2000) Nat Cell Biol 2, 261-267.

[6] = target: T1, GPR4; experiment: ERK MAP kinase activation (phospho-ERK Western blot) in GPR4-infected Swiss 3T3 cells; type: cell-based; conditions: GPR4-ires-GFP vs GFP Swiss 3T3 cells; SPC and LPC 100 nM
Experimental: MAP kinases are key signaling intermediates of DNA synthesis and cell proliferation. Swiss 3T3 cells were infected with MSCV GPR4-ires-GFP or MSCV ires-GFP, and subsequently cells sorted by FACS for positive expression of GFP as described previously (Kabarowski et al. (2000) Proc Natl Acad Sci USA. 97, 12109-12114). Cells were plated in 6-well plates in DMEM containing 5% FBS, serum-starved overnight, and then treated lipids in DMEM for the indicated times. Cells were lysed on ice in RIPA buffer containing 50 mM Tris-HCl, pH 7.5, 1% Nonidet P-40, 0.5% deoxycholate,0.1% SDS, 150 mM NaCl, 2 mM EGTA, 25 mM sodium fluoride, 1 mM sodium orthovanadate, and 1× protease inhibitors (Sigma P8340). Lysates containing equal amounts of protein were separated on 10% SDS-polyacrylamide gels and transferred onto nitrocellulose membranes. Antibodies against phosphorylated ERK1/2 (Cell Signaling Technologies; Beverly, Mass.) were used to probe the membrane and the ECL system (Amersham) was used for detection. To normalize the amounts of protein loaded in each lane, membranes were stripped and re-probed with antibodies against total ERK (Cell Signaling Technologies). In some experiments, cells were pretreated with 100 ng/ml PTX for 12-16 h prior to SPC and LPC stimulation.

[7] = target: T1, GPR4; experiment: Internalization of GPR4-GFP in HEK293 cells (confocal microscopy); type: cell-based
Experimental: pGPR4-GFP stably expressing HEK293 cells were cultured in 6 cm tissue culture dishes in RPMI1640 with 10% FBS. After 16-24 h serum starvation, cells were treated with different lipids at 37° C. for 2 h. Cells were washed with cold PBS and fixed with 4% paraformaldehyde in PBS. The subcellular localization of GPR4-GFP protein was visualized under a Leica TV confocal fluorescence microscope with a 63× oil immersion lens (Wetzler, Heidelberg, Germany). The excitation and emission wavelengths were 488 nm and 515-540 nm, respectively.
G protein coupled receptors undergo agonist-dependent desensitization and internalization. When HEK293 cells are transfected with the pEGFP-N1 vector, GFP protein is expressed in the cytosol of the cells. The GPR4-GFP and TDAG8-GFP fusion proteins, on the other hand, was expressed only on the plasma membrane.

[8] = target: T3, endogenous PAF receptor (Homo sapiens, UniProt P25105); experiment: Calcium assay of the endogenous PAF receptor in MCF10A cells; type: cell-based; conditions: BN52021 200 μM, WEB-2086 2 μM, WEB-2170 2 μM
T3 construct: endogenous in cells; host or cells: MCF10A (parental and GPR4-GFP-transfected)
T3 sequence (P25105 whole entry): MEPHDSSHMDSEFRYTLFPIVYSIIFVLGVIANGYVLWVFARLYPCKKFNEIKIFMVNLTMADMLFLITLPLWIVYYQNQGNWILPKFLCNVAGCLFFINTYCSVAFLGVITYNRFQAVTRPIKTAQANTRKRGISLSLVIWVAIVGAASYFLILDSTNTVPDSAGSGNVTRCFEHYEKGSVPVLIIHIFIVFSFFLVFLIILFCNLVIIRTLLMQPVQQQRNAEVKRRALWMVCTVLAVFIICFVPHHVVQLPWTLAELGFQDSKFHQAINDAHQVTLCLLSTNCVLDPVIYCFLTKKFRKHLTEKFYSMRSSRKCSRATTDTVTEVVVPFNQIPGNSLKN
Experimental: as §2
Therefore, it is unlikely that the increase in calcium induced by LPC was mediated by a PAF receptor.

T1 sequence (P46093 whole entry): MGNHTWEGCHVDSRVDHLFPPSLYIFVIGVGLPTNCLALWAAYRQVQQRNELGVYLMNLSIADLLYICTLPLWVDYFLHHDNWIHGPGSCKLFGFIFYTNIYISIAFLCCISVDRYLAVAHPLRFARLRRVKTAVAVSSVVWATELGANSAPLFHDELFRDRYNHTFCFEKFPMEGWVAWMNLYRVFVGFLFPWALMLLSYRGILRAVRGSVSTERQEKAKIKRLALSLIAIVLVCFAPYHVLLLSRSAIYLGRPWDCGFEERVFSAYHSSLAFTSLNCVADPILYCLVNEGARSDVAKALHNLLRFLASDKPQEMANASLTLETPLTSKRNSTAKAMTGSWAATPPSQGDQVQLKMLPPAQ

Row | GPR4-dependent ERK activation (in words) [6] | Compound | competition for binding of [3H]SPC and [3H]16:0-LPC to GPR4 [1] | increase in [Ca2+]i in GPR4- vs vector-transfected/parental MCF10A cells [5] | further results
1 |  | lysophosphatidylinositol [LPI(18:0)] | not |  | 
2 |  | CCCCCCCCCCCCCCCCCC(=O)OC[C@@H](O)COP(=O)([O-])OCC[N+](C)(C)C [18:0-LPC] | successfully competed for binding |  | 
3 |  | CCCCCCCCCCCCCCCCOC[C@@H](O)COP(=O)([O-])OCC[N+](C)(C)C [lyso-PAF] | not |  | TDAG8 receptor internalization [2]: induced TDAG8 receptor internalization; transcriptional activation of SRE (in words) [3]: none of them induced significant transcriptional activation of SRE; binding to TDAG8 [4]: able to bind to TDAG8
4 |  | Sphingomyelin [SM (18:0)] | not |  | transcriptional activation of SRE (in words) [3]: none of them induced significant transcriptional activation of SRE
5 | not | galactosyl-β1′1-ceramide [Gal-Cer] | None of these glycosphingolipids competed successfully | induced the same level of increased [Ca^2+]i | 
6 | not | CCCCCCCCCCCCC/C=C/[C@@H](O)[C@@H](N)CO[C@@H]1O[C@H](CO)[C@@H](O)[C@H](O)[C@H]1O [Glu-Sph, glucosyl-β1′1-sphingosine] | None of these glycosphingolipids competed successfully | did not stimulate increases in [Ca^2+]i | 
7 |  | CCCCCCCCCCCCC/C=C/[C@@H](O)[C@@H](N)COP(=O)([O-])OCC[N+](C)(C)C [L-threo-SPC] |  | favoring D-erythro-SPC (the bioactive form of SPC) vs. L-threo-SPC | 
8 |  | Cc1nnc2n1-c1sc(CCC(=O)N3CCOCC3)cc1C(c1ccccc1Cl)=NC2 [WEB-2086] |  |  | effect of PAF receptor antagonist on GPR4 internalization induced by SPC or 16:0-LPC [7]: did not affect; effect on calcium signal induced by PAF (100 nM) [8]: completely abolished; effect of PAF receptor antagonist on calcium response to LPC or SPC [5]: not affected
9 |  | Cc1nnc2n1-c1sc3c(c1C(c1ccccc1Cl)=NC2)CC(C(=O)N1CCOCC1)C3 (centres unmarked) [WEB-2170] |  |  | effect of PAF receptor antagonist on GPR4 internalization induced by SPC or 16:0-LPC [7]: did not affect; effect on calcium signal induced by PAF (100 nM) [8]: completely blocked; effect of PAF receptor antagonist on calcium response to LPC or SPC [5]: did not affect; effect of PAF receptor antagonist on calcium response to LPC or SPC ([5]; listed as WEB-2071): insensitive
10 | not | CCCCCCCCCCCCC/C=C/[C@@H](O)[C@@H](N)CO[C@@H]1O[C@H](CO)[C@H](O)[C@H](O)[C@H]1O [Psy, psychosine] | None of these glycosphingolipids competed successfully | did not stimulate increases in [Ca^2+]i | 
11 |  | CCCCCCCCCCCCC/C=C/[C@@H](O)[C@@H](N)COP(=O)([O-])OCC[N+](C)(C)C [D-erythro-SPC] |  | stereoselectivity of GPR4 favoring D-erythro-SPC | 
12 |  | CC1C(=O)OC2C(O)C34C5CC(C(C)(C)C)C36C(OC(=O)C6O)OC4(C(=O)O5)C12O (centres unmarked) [BN52021] |  |  | effect of PAF receptor antagonist on GPR4 internalization induced by SPC or 16:0-LPC [7]: did not block; effect on calcium signal induced by PAF (100 nM) [8]: completely abolished; effect of PAF receptor antagonist on calcium response to LPC or SPC [5]: not affected

Row | Compound | GPR4-dependent ERK activation (in words) [6] | competition for binding of [3H]SPC and [3H]16:0-LPC to GPR4 [1] | increase in [Ca2+]i in GPR4- vs vector-transfected/parental MCF10A cells [5] | further results
13 | lactosyl-β1′1-ceramide [Lac-Cer] | activation was independent of GPR4 expression | None of these glycosphingolipids competed successfully | did not stimulate increases in [Ca^2+]i | 
